Tested on: USP8 MIT domain
Assay: SPOT array of predicted peptides from known interactors, USP8 MIT domain
Type: binding, human
Details: for Percentage (%) normalized to highest intensity and corrected for background: SPOT array, GST-tagged MIT 100 µM, overnight 4 °C, chemiluminescence, highest intensity = DNAJB6; for Percentage (%): Supplementary Fig. 4B, normalized to the highest intensity and corrected for background
Source text: To further assess the SLiM-based interactions of the USP8 MIT domain, we designed a peptide array tiling 24 potential binding sites in previously reported USP8 interactors. We used SLiMSearch to search for peptides that contain shorter or longer matches to the motif (Supplementary Table S4A). […] The DNAJB6_118 - 130 peptide was predicted as a binder based on a partial DFx{2,3}R motif. The DNAJB6-USP8 interaction is supported by previous GST-pulldown experiments and colocalization of the two proteins in male mouse germ cells, and the interaction is thought to be of importance to the protein quality control to yield functional spermatozoa. In the case of the CDH1_863 - 877 peptide it was predicted as USP8 MIT ligand based on the presence of an RFxxL motif. The previous support of the CDH1-USP8 interaction is based on proximity labelling mass spectrometry, and our results thus provide evidence for a binary interaction between the two proteins and define a binding site. To confirm that the motifs used to predict the interactions were of importance for binding we designed an alanine scanning peptide SPOT array analysis of the DNAJB6_118 - 130 and the CDH1_863 - 877 peptides. […] In summary, we find that the USP8 MIT domain binds to a MIM1-like motif that can be expressed by [[…]], as well as degenerate variants thereof. […] The membranes of predicted peptides were purchased by JPT Peptide Technologies (Berlin, Germany). The membranes were incubated with blocking buffer containing 5% skim milk in TBST (50 mM Tris, 150 mM NaCl pH 7.5, 0.05% Tween-20) for two hours at room temperature. The blocked membranes were incubated with GST-tagged proteins (100 μM for MIT domain and 150 μM for the Rhodanese domain) in blocking buffer overnight at 4 °C. After rinsed with TBST the membranes were incubated with HRP-conjugated anti-GST antibody (Cytiva, RPN1236; 1:3000 dilution) in blocking buffer for 1 h at 4 °C and subsequently rinsed with TBST to remove any excess antibody. The ECL reagent (Clarity Max Western ECL substrate, 1705062, BioRad) was used for chemiluminescence read-out with the ChemiDoc Imaging system (BioRad). The images were analysed with Fiji (ImageJ2 version 2.9.0). […] used to design the peptide arrays with known interactors predicted to contain the motifs. The background signal intensity was subtracted, and the corrected signal intensities were normalized to the positive control and presented as percentage.

Sequence	Percentage (%) normalized to highest intensity and corrected for background [%]	Percentage (%)
AGAALLALLAALCP [EGFR, Epidermal growth factor receptor peptide]	6	6
APLLCLALLPALAA [NOTCH1, Neurogenic locus notch homolog protein 1 peptide]	2	2
APPSLLLLLLAQLV [FZD5, Frizzled-5 peptide]	24	24
DDLSRRFEELKKKT [IST1, IST1 homolog peptide]	5	5
DKEIDLELLQDLME [BIRC6, Baculoviral IAP repeat-containing protein 6 peptide]	12	12
DPSNNFRLHNGRS [CFLAR, CASP8 and FADD-like apoptosis regulator peptide]	31	31
GELLLLSLLLLLEP [PDGFRB, Platelet-derived growth factor receptor beta peptide]	-3.37	-3
KEPDALTLLAPAAG [HIF1A, Hypoxia-inducible factor 1-alpha peptide]	-0.189	0
MDLLFGRRKTPEELL [CHMP2A, Charged multivesicular body protein 2a peptide]	-8	-8
MVSWGRFICLVVVTM [FGFR2, Fibroblast growth factor receptor 2 peptide]	2.8	3
NKTLEYKIEILEKT [KIF23, Kinesin-like protein KIF23 peptide]	7	7
PPSSSLELLASLTP [PTPN23, Tyrosine-protein phosphatase non-receptor type 23 peptide]	-7	-7
PQYTNLGLLNSMDQ [TP63 A14, Tumor protein 63 peptide, array position A14]	8	8
QAAIALSLLESPKI [USP28, Ubiquitin carboxyl-terminal hydrolase 28 peptide]	1.29	1
QGPALRYFQLPPRAA [SHANK1 B6, SHANK1 peptide, array position B6]	7	7
RFVVALVLLNVAAA [TGOLN2, Trans-Golgi network integral membrane protein 2 peptide]	-4.72	-5
RGVLALALLALALC [RNF149, E3 ubiquitin-protein ligase RNF149 peptide]	3	3
RPHDIFRQRKQNT [VIRMA, Protein virilizer homolog peptide]	6.6	7
SEENGLPLLVLPPP [SHANK1 A11, SHANK1 peptide, array position A11]	-5.69	-6
SGETDLKLLEESIA [NR3C1, Glucocorticoid receptor peptide]	-4.47	-4
SRGLQLLLLSCAYS [CD83, CD83 antigen peptide]	5.58	6
TEQETLALLEVKRS [TMEM79, Transmembrane protein 79 peptide]	-4	-4

From publication PMC12057046, “Elucidation of short linear motif-based interactions of the MIT and rhodanese domains of the ubiquitin-specific protease 8” (Biology Direct, 2025)
